In ChEMBL document CHEMBL4673219, “Novel 5,6-disubstituted pyrrolo[2,3-d]pyrimidine derivatives as broad spectrum antiproliferative agents: Synthesis, cell based assays, kinase profile and molecular docking study” (Bioorg Med Chem, 2018):

Tests used:
[1] = biological target: Tyrosine-protein kinase Lyn (Homo sapiens) (UniProt P07948); assay: Inhibition of human LYN at 10 uM using myelin basic protein as substrate incubated for 40 mins in presence of [gamma33P]ATP by scintillation counting method relative to control
Chain of Tyrosine-protein kinase Lyn (Homo sapiens) (P07948 2-512 limits assumed): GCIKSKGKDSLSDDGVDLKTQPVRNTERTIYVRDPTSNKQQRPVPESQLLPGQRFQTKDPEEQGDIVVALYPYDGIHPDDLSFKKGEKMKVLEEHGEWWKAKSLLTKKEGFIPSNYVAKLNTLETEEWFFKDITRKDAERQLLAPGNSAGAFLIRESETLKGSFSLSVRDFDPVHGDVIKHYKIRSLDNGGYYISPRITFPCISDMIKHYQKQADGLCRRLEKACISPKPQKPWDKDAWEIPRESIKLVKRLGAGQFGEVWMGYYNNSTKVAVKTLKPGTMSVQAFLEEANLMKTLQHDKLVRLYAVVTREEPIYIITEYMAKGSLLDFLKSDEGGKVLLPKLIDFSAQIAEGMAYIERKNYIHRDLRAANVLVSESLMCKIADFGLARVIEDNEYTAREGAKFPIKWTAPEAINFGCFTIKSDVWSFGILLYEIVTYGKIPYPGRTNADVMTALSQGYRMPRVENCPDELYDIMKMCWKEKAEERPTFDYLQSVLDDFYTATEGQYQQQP

[2] = AUClast in Sprague-Dawley rat at 10 mg/kg, iv measured up to 24 hrs by LC-MS/MS analysis; assay type: ADME, organism-based; design: route intravenous, dose 10 mg/kg, time <=24; settings: in vivo
[3] = Clearance in Sprague-Dawley rat at 10 mg/kg, iv measured up to 24 hrs by LC-MS/MS analysis; assay type: ADME, organism-based; settings: in vivo
[4] = tested on: HL-60(TB); assay: Growth inhibition of human HL-60(TB) cells incubated for 48 hrs by sulforhodamine B assay; assay type: functional
[5] = Oral bioavailability in Sprague-Dawley rat at 10 mg/kg measured up to 24 hrs by LC-MS/MS analysis; assay type: ADME, organism-based; settings: in vivo
[6] = biological target: Macrophage colony-stimulating factor 1 receptor (Homo sapiens) (UniProt P07333); assay: Inhibition of human FMS at 10 uM using myelin basic protein as substrate incubated for 40 mins in presence of [gamma33P]ATP by scintillation counting method relative to control
Chain of Macrophage colony-stimulating factor 1 receptor (Homo sapiens) (P07333 whole entry): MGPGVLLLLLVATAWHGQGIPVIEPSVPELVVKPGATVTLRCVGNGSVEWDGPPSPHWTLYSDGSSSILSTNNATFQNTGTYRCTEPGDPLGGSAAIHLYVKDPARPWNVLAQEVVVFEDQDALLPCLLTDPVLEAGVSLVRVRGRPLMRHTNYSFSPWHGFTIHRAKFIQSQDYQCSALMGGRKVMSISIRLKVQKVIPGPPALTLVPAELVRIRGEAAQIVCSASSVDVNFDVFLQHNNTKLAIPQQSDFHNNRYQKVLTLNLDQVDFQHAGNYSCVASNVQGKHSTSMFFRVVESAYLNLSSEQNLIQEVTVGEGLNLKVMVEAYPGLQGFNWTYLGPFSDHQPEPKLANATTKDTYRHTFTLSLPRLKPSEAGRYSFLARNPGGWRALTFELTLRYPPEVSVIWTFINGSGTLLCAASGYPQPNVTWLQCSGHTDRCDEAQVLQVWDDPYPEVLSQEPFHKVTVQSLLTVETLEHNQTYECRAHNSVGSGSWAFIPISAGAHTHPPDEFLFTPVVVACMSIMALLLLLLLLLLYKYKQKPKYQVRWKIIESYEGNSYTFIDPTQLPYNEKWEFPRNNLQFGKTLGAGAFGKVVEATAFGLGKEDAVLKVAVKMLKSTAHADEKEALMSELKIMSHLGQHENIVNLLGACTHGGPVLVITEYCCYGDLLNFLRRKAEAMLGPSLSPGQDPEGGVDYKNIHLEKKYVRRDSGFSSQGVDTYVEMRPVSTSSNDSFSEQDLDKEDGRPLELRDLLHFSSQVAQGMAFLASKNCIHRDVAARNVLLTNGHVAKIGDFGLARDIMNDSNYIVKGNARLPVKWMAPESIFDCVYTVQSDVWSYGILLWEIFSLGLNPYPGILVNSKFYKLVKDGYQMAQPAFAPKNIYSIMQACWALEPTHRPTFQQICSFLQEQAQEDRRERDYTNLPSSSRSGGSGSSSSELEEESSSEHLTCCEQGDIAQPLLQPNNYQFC

[7] = Tmax in Sprague-Dawley rat at 10 mg/kg, po measured up to 24 hrs by LC-MS/MS analysis; assay type: ADME, organism-based; settings: in vivo
[8] = Terminal half life in Sprague-Dawley rat at 10 mg/kg, iv measured up to 24 hrs by LC-MS/MS analysis; assay type: ADME, organism-based; settings: in vivo, read-out: beta t1/2
[9] = Terminal half life in Sprague-Dawley rat at 10 mg/kg, po measured up to 24 hrs by LC-MS/MS analysis; assay type: ADME, organism-based; settings: in vivo, read-out: beta t1/2
[10] = tested on: HL-60(TB); assay: Growth inhibition of human HL-60(TB) cells assessed as growth percentage at 1 uM incubated for 48 hrs by sulforhodamine B assay relative to control; assay type: functional; settings: read-out: Activity
[11] = AUClast in Sprague-Dawley rat at 10 mg/kg, po measured up to 24 hrs by LC-MS/MS analysis; assay type: ADME, organism-based; design: route oral, dose 10 mg/kg, time <=24; settings: in vivo
[12] = tested on: A498; assay: Growth inhibition of human A498 cells incubated for 48 hrs by sulforhodamine B assay; assay type: functional
[13] = tested on: HL-60(TB); assay: Growth inhibition of human HL-60(TB) cells assessed as growth percentage at 0.01 uM incubated for 48 hrs by sulforhodamine B assay relative to control; assay type: functional; settings: read-out: Activity
[14] = AUC (0 to infinity) in Sprague-Dawley rat at 10 mg/kg, po measured up to 24 hrs by LC-MS/MS analysis; assay type: ADME, organism-based; design: route oral, dose 10 mg/kg, time <=24; settings: in vivo
[15] = tested on: SK-MEL-2; assay: Growth inhibition of human SK-MEL-2 cells assessed as growth percentage at 0.01 uM incubated for 48 hrs by sulforhodamine B assay relative to control; assay type: functional; settings: read-out: Activity
[16] = tested on: SF-539; assay: Growth inhibition of human SF-539 cells assessed as growth percentage at 1 uM incubated for 48 hrs by sulforhodamine B assay relative to control; assay type: functional; settings: read-out: Activity
[17] = tested on: ACHN; assay: Growth inhibition of human ACHN cells assessed as growth percentage at 1 uM incubated for 48 hrs by sulforhodamine B assay relative to control; assay type: functional; settings: read-out: Activity
[18] = tested on: SF-539; assay: Growth inhibition of human SF-539 cells assessed as growth percentage at 0.01 uM incubated for 48 hrs by sulforhodamine B assay relative to control; assay type: functional; settings: read-out: Activity
[19] = tested on: SF-539; assay: Growth inhibition of human SF-539 cells assessed as growth percentage at 100 uM incubated for 48 hrs by sulforhodamine B assay relative to control; assay type: functional; settings: read-out: Activity
[20] = tested on: OVCAR-5; assay: Growth inhibition of human OVCAR-5 cells assessed as growth percentage at 0.1 uM incubated for 48 hrs by sulforhodamine B assay relative to control; assay type: functional; settings: read-out: Activity
[21] = tested on: ACHN; assay: Growth inhibition of human ACHN cells assessed as growth percentage at 0.01 uM incubated for 48 hrs by sulforhodamine B assay relative to control; assay type: functional; settings: read-out: Activity
[22] = tested on: SK-MEL-2; assay: Growth inhibition of human SK-MEL-2 cells assessed as growth percentage at 100 uM incubated for 48 hrs by sulforhodamine B assay relative to control; assay type: functional; settings: read-out: Activity
[23] = tested on: SK-MEL-28; assay: Growth inhibition of human SK-MEL-28 cells assessed as growth percentage at 1 uM incubated for 48 hrs by sulforhodamine B assay relative to control; assay type: functional; settings: read-out: Activity
[24] = tested on: ACHN; assay: Growth inhibition of human ACHN cells assessed as growth percentage at 0.1 uM incubated for 48 hrs by sulforhodamine B assay relative to control; assay type: functional; settings: read-out: Activity
[25] = tested on: OVCAR-5; assay: Growth inhibition of human OVCAR-5 cells assessed as growth percentage at 100 uM incubated for 48 hrs by sulforhodamine B assay relative to control; assay type: functional; settings: read-out: Activity
[26] = tested on: SK-MEL-28; assay: Growth inhibition of human SK-MEL-28 cells assessed as growth percentage at 100 uM incubated for 48 hrs by sulforhodamine B assay relative to control; assay type: functional; settings: read-out: Activity
[27] = tested on: ACHN; assay: Growth inhibition of human ACHN cells incubated for 48 hrs by sulforhodamine B assay; assay type: functional
[28] = tested on: SK-MEL-2; assay: Growth inhibition of human SK-MEL-2 cells assessed as growth percentage at 1 uM incubated for 48 hrs by sulforhodamine B assay relative to control; assay type: functional; settings: read-out: Activity
[29] = tested on: OVCAR-5; assay: Growth inhibition of human OVCAR-5 cells assessed as growth percentage at 1 uM incubated for 48 hrs by sulforhodamine B assay relative to control; assay type: functional; settings: read-out: Activity
[30] = tested on: ACHN; assay: Growth inhibition of human ACHN cells assessed as growth percentage at 100 uM incubated for 48 hrs by sulforhodamine B assay relative to control; assay type: functional; settings: read-out: Activity
[31] = tested on: OVCAR-5; assay: Growth inhibition of human OVCAR-5 cells assessed as growth percentage at 10 uM incubated for 48 hrs by sulforhodamine B assay relative to control; assay type: functional; settings: read-out: Activity
[32] = tested on: SK-MEL-28; assay: Growth inhibition of human SK-MEL-28 cells assessed as growth percentage at 0.1 uM incubated for 48 hrs by sulforhodamine B assay relative to control; assay type: functional; settings: read-out: Activity
[33] = tested on: OVCAR-5; assay: Growth inhibition of human OVCAR-5 cells assessed as growth percentage at 0.01 uM incubated for 48 hrs by sulforhodamine B assay relative to control; assay type: functional; settings: read-out: Activity

Structure (SMILES): CCCCCCCC(=O)Nc1nc2[nH]c(CN3CCN(Cc4cccc(F)c4)CC3)c(CN3CCN(Cc4cccc(F)c4)CC3)c2c(=O)[nH]1
- inhibition [1]: 70.3%
- AUC(0-t) at 24 h [2]: 317 ng·h/mL
- clearance [3]: 342 mL/min/kg
- GI50 [4]: 1.74 µM
- TGI [4]: 3.75 µM
- bioavailability [5]: 12.3%
- inhibition [6]: 70.3%
- Tmax [7]: 2.25 h
- half-life [8]: 11.7 h
- half-life [9]: 1.66 h
- growth at 1 µM [10]: 96%
- AUC(0-t) at 24 h [11]: 56.7 ng·h/mL
- GI50 ([12]; A498): 1.25 µM
- TGI ([12]; A498): 2.53 µM
- CC50 ([12]; A498, 48 h, read-out: LC50 (the source's name)): 5.1 µM
- growth at 0.01 µM [13]: 98%
- AUC(0-inf) [14]: 61.7 ng·h/mL

Structure (SMILES): Nc1nc2[nH]c(CN3CCN(c4cc(Cl)cc(Cl)c4)CC3)c(CN3CCN(c4cc(Cl)cc(Cl)c4)CC3)c2c(=O)[nH]1
- growth at 0.01 µM [15]: 109%
- growth at 1 µM [16]: 93%
- growth at 1 µM [17]: 98%
- growth at 0.01 µM [18]: 89%
- growth at 100 µM [19]: -55%
- growth at 0.1 µM [20]: 94%
- growth at 0.01 µM [21]: 94%
- growth at 100 µM [22]: -48%
- growth at 1 µM [23]: 91%
- growth at 0.1 µM [24]: 98%
- growth at 100 µM [25]: -35%
- growth at 100 µM [26]: -42%
- GI50 [27]: 1.94 µM
- TGI [27]: 3.9 µM
- growth at 1 µM [28]: 114%
- growth at 1 µM [29]: 89%
- growth at 100 µM [30]: -26%
- growth at 10 µM [31]: 92.2%
- growth at 0.1 µM [32]: 98%
- growth at 0.01 µM [33]: 87%
